Laboratory results taken from US20100316677A1, “USE OF BAMBOO LEAF TOTAL FLAVONES IN THE PREPARATION OF MEDICINE AND HEALTH FOOD FOR PREVENTION AND TREATMENT OF PROSTATIC DISEASES” (ZHEJIANG UNIVERSITY (HANGZHOU) LEAF BIO-TECHNOLOGY CO., LTD., priority 2003, published 2010).

What was measured:
[1] = system: prostatic hyperplasia caused by testosterone propionate; experiment: prostatic hyperplasia caused by testosterone propionate; type: in vivo, ICR mice; conditions: testosterone propionate mice, 0.5 mg/kg sc once every 3 days, 5 times
Description: Randomly assign ICR mice, male, body weight 18-21g, into 7 groups, 10-11 mice in each group: (1) controlled group: water of equal volume, 0.8 mL/20 g, ig; (2) model group: 0.8 mL/20 g water of equal volume, ig; (3) estradiol group: estradiol 0.5 mg/kg, sc, once every 3 days, for 5 times; (4) high-dose group: EOB-f01 400 mg/kg ig; (5) moderate-dose group: EOB-f01 200 mg/kg, ig; (6) low-dose group: EOB-f01 100 mg/kg, ig. Once per day, for 14 days. Except the controlled group (1), various groups (2)-(6) with testosterone propionate 5 mg/mL per day, sc, for 14 d. On the fifteenth day, sacrifice the mice, anatomize them, take and weigh the abdominal, side, and back parts of the prostate, and evaluate anti-hyperplasia effects of EOB-f01.

[2] = system: growth of the prostate and accessorial sex organs; experiment: growth of the prostate and the accessorial sex organs of young mice; type: in vivo, ICR young male mice; conditions: 0.5 mg/kg sc once every 3 days, 5 times
Description: Assign ICR young male mice, body weight 10-12 g, into groups according to their body weight, 10-11 mice in each group: (1) controlled group: water of equal volume, 0.8 mL/20 g, ig; (2) estradiol group: estradiol 0.5 mg/kg, sc, once every 3 days, for 5 times; (3) high-dose group: EOB-f01 400 mg/kg, ig; (4) moderate-dose group: EOB-f01 200 mg/kg, ig; (5) low-dose group: EOB-f01 100 mg/kg, ig. Once per day, for 14 days. On the fifteenth day, sacrifice the mice, anatomize and weigh the abdominal, side, and back parts of the prostate, and seminal vesicle, testis, and elevator ani muscle.

[3] = system: swelling of ear auricle caused by croton oil; experiment: swelling of ear auricle of mice caused by croton oil; type: in vivo; conditions: 10 mg/kg ig once, blank control 19.8 ± 2.9
Description: Randomly assign mice into 5 groups, 12 mice in each group, as follows: (1) Blank-controlled group: saline of equal volume, 0.8 mL/20 g; (2) Positive-controlled group: indomethacin 10 mg/kg; (3) High-dose group: 10 mg/mL EOB-f01, 400 mg/kg; (4) moderate-dose group: 5 mg/mL EOB-f01, 200 mg/kg; (5) Low-dose group: 2.5 mg/mL EOB-f01, 100 mg/kg. The animals received the administration through gastric irrigation (ig). once per day for 7 continuous days (for indomethacin, only once); in 1 h after the final dose, smear the right ear of the mice with 2% croton oil, 0.02 ml/mouse, cause inflammation, sacrifice them after 4 h, shear away their left and right ears, punch down their left and right ear slice with 9 mm trephine, and weigh them, taking the difference of weights between left and right ear slices as the swelling rate.

[4] = system: swelling of ear auricle caused by xylene; experiment: swelling of ear auricle of mice caused by xylene; type: in vivo; conditions: 10 mg/kg ig once, blank control 11.4 ± 4.9
Description: Assign the mice into 5 groups according to their body weight, 10 mice in each group, as 2.1 section. Give the mice once per day through gastric irrigation (ig), for 7 days (indomethacin, given only once); in 30 min after the final dose, smear the right ear of the mice with xylene, 0.05 ml/mouse, cause inflammation, sacrifice them in 15 min, shear away their left and right ears, punch down their left and right ear slice with 9 mm trephine, and weigh them, taking the difference of weights between left and right ear slices as the swelling rate. Judge the effects compared with those of the controlled groups.

[5] = system: prostatitis caused by carrageenan; experiment: prostatitis caused by carrageenan (prostate weight, histopathology); type: in vivo, SD male rats; conditions: carrageenan rats
Description: […] Give the rats through gastric irrigation once per day, for 7 days (indomethacin, only once prior to operation), and begin the operation in 0.5 h after the final dose.
Conduct anesthesia for the rats, then fix them in supine position, shear off hair at their abdomen, and sterilized by iodine tinture; under sterilized condition, cut 1.5 cm at the center of their abdomen, expose the abdominal part of prostate, inject rats in (2)-(6) groups with 1% carrageenan saline, 0.02 mL/rat, with No. 4.5 syringe, immediately return the prostate to the abdominal cavity, add 1 drop of penicillin in the abdominal cavity, and immediately suture the abdominal cavity by two-layer ways. Replace carrageenan with saline 0.02 mL/rat, for rat in the controlled group (1), and conduct pseudo-operation. In 4 h after operation, sacrifice the rats, anatomize and separate each part of the prostate, weigh wet weight, and compare swelling extents between the dose groups and the model group. Take the abdominal part of the prostate of rats, fix with 10% formalin, dehydrate routinely, imbedded with paraffin, slice up, conduct HE staining, and observe pathological changes under a microscope.
Observation criteria for pathology of prostatic tissue from rats of each group: (1) Score of stroma swelling or blood vessel hyperemia: no stroma swelling or blood vessel hyperemia, 0; mild stroma swelling or blood vessel hyperemia, 1; moderate stroma swelling or blood vessel hyperemia, 2; severe stroma swelling or blood vessel hyperemia, 3; (2) Score of infiltration of inflammatory cells: no stroma inflammatory cells, 0; small amount of stroma inflammatory cells, 1; moderate amount of stroma inflammatory cells, 2; high amount of stroma inflammatory cells, 3; stroma diffuse inflammatory cells, 4.

Row | SMILES | Prostate weights, Back part ([1]; model 7.8 ± 1.8) [mg] | Prostate weights, Abdominal part ([1]; model 11.3 ± 2.8) [mg] | Prostate weights, Side part ([1]; model 23.6 ± 6.2) [mg] | Prostate weights, Back part ([2]; blank control 4.2 ± 1.5) [mg] | Prostate weights, Abdominal part ([2]; blank control 6.7 ± 1.1) [mg] | Prostate weights, Side part ([2]; blank control 9.6 ± 3.3) [mg] | Seminal vesicle ([2]; organ weight, blank control 34.1 ± 11.3) [mg] | Elevator ani muscle ([2]; organ weight, blank control 42.5 ± 10.6) [mg] | Testis ([2]; organ weight, blank control 151.3 ± 28.2) [mg] | Swelling rate of ear auricle [3] [mg] | Swelling rate of ear auricle [4] [mg] | Prostate weights, Side part ([5]; 12 mg/kg ig once, model 73.3 ± 17.3) [mg] | Prostate weights, Back part ([5]; 12 mg/kg ig once, model 122.1 ± 23.3) [mg] | Prostate weights, Abdominal part ([5]; 12 mg/kg ig once, model 466.5 ± 79.1) [mg] | Degree of dilation or swelling of stroma blood vessels ([5]; score 0-3, abdominal part of prostate, 10 mg/kg, model 2.6 ± 0.5) | Degree of infiltration of neutrophils ([5]; score 0-4, abdominal part of prostate, 10 mg/kg, model 2.6 ± 1.3)
1 | C[C@]12CC[C@@H]3c4ccc(O)cc4CC[C@H]3[C@@H]1CC[C@@H]2O [Estradiol, estradiol] | 5.1 ± 1.6 | 7.0 ± 1.7 | 15.1 ± 2.7 | 1.1 ± 0.9 | 1.7 ± 0.5 | 1.5 ± 1.3 | 7.3 ± 2.5 | 14.1 ± 3.3 | 58.0 ± 12.8 |  |  |  |  |  |  | 
2 | COc1ccc2c(c1)c(CC(=O)O)c(C)n2C(=O)c1ccc(Cl)cc1 [Indomethacin, indomethacin] |  |  |  |  |  |  |  |  |  | 14.8 ± 5.1 | 6.4 ± 2.3 | 62.0 ± 12.3 | 128.6 ± 20.9 | 358.1 ± 79.2 | 2.1 ± 2.0 | 2.2 ± 1.3
